According to ChEMBL document CHEMBL4627303, “Design, synthesis and evaluation of flurbiprofen-clioquinol hybrids as multitarget-directed ligands against Alzheimer's disease” (Bioorg Med Chem, 2020):

How the values were obtained:
[1] = molecular target: T1, Amine oxidase [flavin-containing] B (Homo sapiens, UniProt P27338); test: Inhibition of recombinant human MAOB expressed in baculovirus infected in BTI cells at 10 uM using kynuramine as substrate after 30 mins by fluorescence based assay relative to control; conditions: 0.5 h
T1 sequence (P27338 whole entry): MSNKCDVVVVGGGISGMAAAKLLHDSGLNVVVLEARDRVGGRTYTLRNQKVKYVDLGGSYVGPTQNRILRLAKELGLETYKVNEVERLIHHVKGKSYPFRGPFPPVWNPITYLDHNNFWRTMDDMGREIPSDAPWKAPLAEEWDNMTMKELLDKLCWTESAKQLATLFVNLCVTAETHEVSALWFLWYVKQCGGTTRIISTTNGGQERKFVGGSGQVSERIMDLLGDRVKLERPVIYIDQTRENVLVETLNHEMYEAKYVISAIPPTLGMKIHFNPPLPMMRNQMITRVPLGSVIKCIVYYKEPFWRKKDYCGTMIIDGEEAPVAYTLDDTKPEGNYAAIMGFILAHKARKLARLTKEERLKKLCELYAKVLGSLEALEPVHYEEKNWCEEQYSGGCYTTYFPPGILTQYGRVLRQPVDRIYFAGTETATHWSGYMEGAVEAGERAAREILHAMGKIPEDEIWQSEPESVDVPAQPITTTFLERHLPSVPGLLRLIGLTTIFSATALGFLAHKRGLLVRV

[2] = molecular target: T2, Amine oxidase [flavin-containing] A (Homo sapiens, UniProt P21397); test: Inhibition of recombinant human MAOA expressed in baculovirus infected in BTI cells at 10 uM using kynuramine as substrate after 30 mins by fluorescence based assay relative to control; conditions: 0.5 h
T2 sequence (P21397 whole entry): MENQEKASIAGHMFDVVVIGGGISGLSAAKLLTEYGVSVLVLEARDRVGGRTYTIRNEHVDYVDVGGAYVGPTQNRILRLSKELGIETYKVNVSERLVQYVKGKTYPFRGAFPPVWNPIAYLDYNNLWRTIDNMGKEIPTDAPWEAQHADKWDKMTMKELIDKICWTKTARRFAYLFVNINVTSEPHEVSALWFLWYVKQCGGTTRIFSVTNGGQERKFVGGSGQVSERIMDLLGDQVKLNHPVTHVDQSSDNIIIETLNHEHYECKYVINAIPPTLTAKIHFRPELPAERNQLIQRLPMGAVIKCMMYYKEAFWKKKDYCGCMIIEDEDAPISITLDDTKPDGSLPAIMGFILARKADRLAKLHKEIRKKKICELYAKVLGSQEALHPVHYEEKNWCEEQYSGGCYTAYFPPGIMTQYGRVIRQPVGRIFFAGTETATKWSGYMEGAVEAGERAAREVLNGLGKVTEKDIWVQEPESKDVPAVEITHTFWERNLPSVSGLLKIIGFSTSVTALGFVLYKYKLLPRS

[3] = molecular target: Amyloid-beta precursor protein (Homo sapiens) (UniProt P05067); test: Inhibition of HFIP-pretreated amyloid beta (1 to 42) (unknown origin) self-aggregation at 25 uM after 24 hrs by thioflavin-T fluorescence assay relative to control
Chain of Amyloid-beta precursor protein (Homo sapiens) (P05067 whole entry): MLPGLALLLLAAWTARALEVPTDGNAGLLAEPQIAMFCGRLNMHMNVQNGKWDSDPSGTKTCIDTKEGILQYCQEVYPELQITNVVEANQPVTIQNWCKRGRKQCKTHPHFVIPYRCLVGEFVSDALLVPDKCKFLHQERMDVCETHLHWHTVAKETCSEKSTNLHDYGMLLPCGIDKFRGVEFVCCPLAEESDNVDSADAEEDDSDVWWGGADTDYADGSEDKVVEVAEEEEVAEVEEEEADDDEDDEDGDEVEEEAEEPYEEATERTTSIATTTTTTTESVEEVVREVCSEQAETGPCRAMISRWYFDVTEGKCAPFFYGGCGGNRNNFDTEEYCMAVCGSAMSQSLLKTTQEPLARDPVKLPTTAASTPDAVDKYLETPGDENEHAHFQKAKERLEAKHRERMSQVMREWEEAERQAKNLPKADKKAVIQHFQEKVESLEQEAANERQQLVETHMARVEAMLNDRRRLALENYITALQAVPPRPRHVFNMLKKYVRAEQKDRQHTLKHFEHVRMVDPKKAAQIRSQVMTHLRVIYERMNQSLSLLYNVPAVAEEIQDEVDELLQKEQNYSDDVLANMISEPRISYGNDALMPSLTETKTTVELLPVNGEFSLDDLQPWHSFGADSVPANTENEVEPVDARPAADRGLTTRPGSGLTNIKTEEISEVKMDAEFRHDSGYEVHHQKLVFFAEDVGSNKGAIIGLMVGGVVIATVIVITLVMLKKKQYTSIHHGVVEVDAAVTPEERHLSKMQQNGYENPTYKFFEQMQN

[4] = molecular target: Amyloid-beta precursor protein (Homo sapiens) (UniProt P05067); test: Inhibition of Cu2+-induced HFIP-pretreated amyloid beta (1 to 42) (unknown origin) aggregation at 25 uM measured after 24 hrs by thioflavin-T fluorescence assay relative to control
[5] = molecular target: Amyloid-beta precursor protein (Homo sapiens) (UniProt P05067); test: Disaggregation of self-induced amyloid beta (1 to 42) (unknown origin) preformed fibrils at 25 uM measured after 24 hrs by thioflavin-T fluorescence assay relative to control
[6] = Antioxidant activity assessed as AAPH-induced radical scavenging activity by measuring trolox equivalents for oxygen radical absorbance capacity measured every minute for 90 mins by ORAC-FL assay; type: functional
[7] = molecular target: T1, Amine oxidase [flavin-containing] B; test: Inhibition of recombinant human MAOB expressed in baculovirus infected in BTI cells using kynuramine as substrate after 30 mins by fluorescence based assay; type: cell-based
BV-2 [8] = test: Anti-neuroinflammatory activity in mouse BV2 cells assessed as inhibition of LPS-induced NO production at 2.5 uM preincubated for 30 mins followed by LPS stimulation measured after 24 hrs by Griess reagent based assay relative to control; type: functional
BV-2 [9] = test: Anti-neuroinflammatory activity in mouse BV2 cells assessed as inhibition of LPS-induced NO production at 10 uM preincubated for 30 mins followed by LPS stimulation measured after 24 hrs by Griess reagent based assay relative to control; type: functional
BV-2 [10] = test: Cytotoxicity against LPS-induced mouse BV2 cells assessed as reduction in cell viability at 0.5 to 10 uM preincubated for 30 mins followed by LPS stimulation and measured after 24 hrs by MTT assay; type: cell-based; conditions: bv-2, 24 h
BV-2 [11] = test: Anti-neuroinflammatory activity in mouse BV2 cells assessed as inhibition of LPS-induced TNFalpha production at 2.5 uM preincubated for 30 mins followed by LPS stimulation measured after 24 hrs by ELISA relative to control; type: functional
BV-2 [12] = test: Effect on nitric oxide production in mouse BV2 cells at 0.5 to 10 uM measured after 30 mins by Griess reagent based […]; type: ADME, cell-based; conditions: bv-2, 0.5 h
BV-2 [13] = test: Anti-neuroinflammatory activity in mouse BV2 cells assessed as inhibition of LPS-induced TNFalpha production at 10 uM preincubated for 30 mins followed by LPS stimulation measured after 24 hrs by ELISA relative to control; type: functional
BV-2 [14] = test: Cytotoxicity against mouse BV2 cells assessed as reduction in cell viability at 0.5 to 10 uM measured after 30 mins by MTT assay; type: cell-based; conditions: bv-2, 0.5 h

For `COC(=O)C(C)c1ccc(-c2ccc(NCc3cccc(CN(C)C)c3O)cc2)c(F)c1` (stereo not given), the inhibition at 10 µM [1] was < 5%, the inhibition at 10 µM [2] was 19.9% and the inhibition [3] was 68.6%. The inhibition [4] was 41.9%, the Activity [5] was 45.1% and the Activity [6] was 2.18 µMequiv/µM.

With `COC(=O)C(C)c1ccc(-c2ccc(NCc3cccc(OC)c3O)cc2)c(F)c1` (stereo not given) the inhibition at 10 µM [1] was 11.7%, the inhibition at 10 µM [2] was 10.5% and the inhibition [3] was 46.2%. The inhibition [4] was 39.9%, the Activity [5] was 41.7% and the Activity [6] was 1.68 µMequiv/µM.

`COC(=O)C(C)c1ccc(-c2ccc(NCc3cc(CN(C)C)ccc3O)cc2)c(F)c1` (stereo not given) gave an inhibition at 10 µM [1] of 32.8%, an inhibition at 10 µM [2] of 22.4% and an inhibition [3] of 43%. For the same compound, the inhibition [4] was 43.7%, the Activity [5] was 51.2% and the Activity [6] was 1.92 µMequiv/µM.

In the case of `COC(=O)C(C)c1ccc(-c2ccc(NCc3ccccc3O)cc2)c(F)c1` (stereo not given), the inhibition at 10 µM [1] is reported as < 5%, the inhibition at 10 µM [2] is reported as 15.9% and the inhibition [3] is reported as 24.7%. It also gave an inhibition [4] of 42.9%, an Activity [5] of 44.1% and an Activity [6] of 1.51 µMequiv/µM.

With `COC(=O)C(C)c1ccc(-c2ccc(NCc3cc(CN(C)C)cc(OC)c3O)cc2)c(F)c1` (stereo not given) the inhibition at 10 µM [1] was 36%, the inhibition at 10 µM [2] was 17.8% and the inhibition [3] was 58.2%. The inhibition [4] was 38.3%, the Activity [5] was 49.3% and the Activity [6] was 2.07 µMequiv/µM.

With `COC(=O)C(C)c1ccc(-c2ccc(NCc3cc(CN4CCCCC4)ccc3O)cc2)c(F)c1` (stereo not given) the inhibition at 10 µM [1] was 25.8%, the inhibition at 10 µM [2] was 18.2% and the inhibition [3] was 29.4%. It also gave an inhibition [4] of 29.4%, an Activity [5] of 30.2% and an Activity [6] of 2.14 µMequiv/µM.

`COC(=O)C(C)c1ccc(-c2ccc(NCc3cc(Br)cc(Br)c3O)cc2)c(F)c1` (stereo not given) showed an inhibition at 10 µM [1] of 16.4%, an inhibition at 10 µM [2] of 17.9% and an inhibition [3] of 57.9%. It also gave an inhibition [4] of 38.3%, an Activity [5] of 35.9% and an Activity [6] of 1.42 µMequiv/µM.

For `COC(=O)C(C)c1ccc(-c2ccc(NCc3ccc(OC)cc3O)cc2)c(F)c1` (stereo not given), the inhibition at 10 µM [1] was 22.9%, the inhibition at 10 µM [2] was 11.2% and the inhibition [3] was 32.8%. It also gave an inhibition [4] of 30.6%, an Activity [5] of 25.6% and an Activity [6] of 1.96 µMequiv/µM.

Work on `COC(=O)C(C)c1ccc(-c2ccc(NCc3nc(C)c(C)nc3C)cc2)c(F)c1` (stereo not given) yielded an inhibition at 10 µM [1] of 42.5%, an inhibition at 10 µM [2] of 20.4% and an inhibition [3] of 27.5%. For the same compound, the inhibition [4] was 22.5%, the Activity [5] was 18.3% and the IC50 [7] was 15.1 µM. It also gave an Activity [6] of 1.69 µMequiv/µM.

For `COC(=O)C(C)c1ccc(-c2ccc(NCc3cccc(CN4CCCCC4)c3O)cc2)c(F)c1` (stereo not given), the inhibition at 10 µM [1] was < 5%, the inhibition at 10 µM [2] was < 5% and the inhibition [3] was 48.8%. The inhibition [4] was 42.4%, the Activity [5] was 43.3% and the Activity [6] was 2.02 µMequiv/µM.

In the case of `CC(C(=O)O)c1ccc(-c2ccccc2)c(F)c1` (stereo not given) [FLURBIPROFEN], the inhibition at 2.5 µM (BV-2 [8]) is reported as 12.5%, the inhibition at 10 µM (BV-2 [9]) is reported as 26.2% and the Activity (BV-2 [10]) is reported as “Non-Toxic”. For the same compound, the inhibition at 2.5 µM (BV-2 [11]) was 10.2%, the Activity (BV-2 [12]) was “Non-Toxic” and the inhibition [4] was 7.29%. For the same compound, the inhibition at 10 µM (BV-2 [13]) was 31.2%, the Activity (BV-2 [14]) was “Non-Toxic” and the Activity [5] was 9.28%. It also gave an Activity [6] of 0.17 µMequiv/µM.

Compound `COc1cc(/C=C/C(=O)CC(=O)/C=C/c2ccc(O)c(OC)c2)ccc1O` has an inhibition [3] of 32.5% and an inhibition [4] of 32.5%.

Compound `COC(=O)C(C)c1ccc(-c2ccc(NCc3cc(NC(C)=O)ccc3O)cc2)c(F)c1` (stereo not given) has an inhibition at 10 µM [1] of 46.2%, an inhibition at 10 µM [2] of 18.7% and an inhibition [3] of 39.2%. It also gave an inhibition [4] of 24%, an Activity [5] of 27.1% and an IC50 [7] of 16.3 µM. The Activity [6] was 1.65 µMequiv/µM.

`COC(=O)C(C)c1ccc(-c2ccc(NCc3ccccn3)cc2)c(F)c1` (stereo not given) gave an inhibition at 10 µM [1] of 45.8%, an inhibition at 10 µM [2] of 36.8% and an inhibition [3] of 48.3%. For the same compound, the inhibition [4] was 37.8%, the Activity [5] was 35.5% and the IC50 [7] was 16.6 µM. The Activity [6] was 1.15 µMequiv/µM.

`COC(=O)C(C)c1ccc(-c2ccc(NCc3cc(Br)ccc3O)cc2)c(F)c1` (stereo not given) gave an inhibition at 10 µM [1] of 28.4%, an inhibition at 10 µM [2] of 29.3% and an inhibition [3] of 37%. It also gave an inhibition [4] of 32%, an Activity [5] of 36.6% and an Activity [6] of 1.37 µMequiv/µM.

With `COC(=O)C(C)c1ccc(-c2ccc(NCc3cc(C)ccc3O)cc2)c(F)c1` (stereo not given) the inhibition at 10 µM [1] was 11.4%, the inhibition at 10 µM [2] was 21.9% and the inhibition [3] was 58.5%. The inhibition [4] was 49.7%, the Activity [5] was 42.6% and the Activity [6] was 1.56 µMequiv/µM.

In the case of `Oc1c(I)cc(Cl)c2cccnc12`, the inhibition [3] is reported as 62.4%, the inhibition [4] is reported as 40.1% and the Activity [5] is reported as 51.1%. The Activity [6] was 0.54 µMequiv/µM.

With `COC(=O)C(C)c1ccc(-c2ccc(NCc3cc(OC)ccc3O)cc2)c(F)c1` (stereo not given) the inhibition at 10 µM [1] was 33.4%, the inhibition at 10 µM [2] was 28.4% and the inhibition [3] was 73.6%. It also gave an inhibition [4] of 43.6%, an Activity [5] of 53.3% and an Activity [6] of 2.05 µMequiv/µM.

In the case of `COC(=O)C(C)c1ccc(-c2ccc(NCc3cc(Cl)ccc3O)cc2)c(F)c1` (stereo not given), the inhibition at 10 µM [1] is reported as < 5%, the inhibition at 10 µM [2] is reported as 30.6% and the inhibition [3] is reported as 48.3%. The inhibition [4] was 41.9%, the Activity [5] was 41.9% and the Activity [6] was 1.32 µMequiv/µM.
